Assay results as given in patent EP0407583A1, “DERIVATIVES OF DICHLOR[…] ACYLAMIDO[…] AND INSECTICIDAL, FU[…] HEMATOCIDAL PREPARATIONS BASED ON THEM” (priority 1989, dated 1990).

Experiments:
[1] = system: Aspergillus fumigatis; test: Inhibition of phytopathogenic fungi growth, laboratory test on potato-dextrose agar; assay type: cell-based; conditions: active principle 0.01 % by mass in potato-dextrose agar
Protocol: (§1) A fungicidal composition based on this compound was prepared in the form of a 0.01% solution thereof in distilled water. A fungicidal action of the composition, according to the invention, was tested for inhibition of vegetative fungi growth such as Fusarium moniliforme, Ventura inaequalis, Rhyzoctonia ciolaceae, Botrytis cinereae, Verticillium albo-atrum, Diplodia zeae, Fusarium oxysporum, Rhoma betae, Rhyzoctonia aderholdii, Aspergillus niger, Alternaria sobani, Botrytis allii, Aspergillus fumigatis, Fusarium culmorum, Penicillium cyclopium affecting potato, sugar beet, cotton seeds either in laboratory or field conditions. For testing it to the Petri dishes containing potato-dextrose agar the composition of the invention was.added at the concentration of an active principle of 0.01 % by mass. The Petri dishes containing the same agar culture were inoculated with a mycelium of phytopathogenic fungi. For control dishes the phytopathogenic fungi were inoculated on agar without using the composition of the invention. A fungicidal effect of the composition, according to the invention was tested in comparison with the known fungicidal compositions based on 2,3-dichloro-1,4-naphthoquinone, zinc N,N'-ethylene-bis-dithiocarbamate and tetramethylthiuram disulphide.

[2] = system: Aspergillus niger; test: as above; assay type: cell-based; conditions: active principle 0.01 % by mass in potato-dextrose agar
Protocol: as §1

[3] = system: Penicillium cyclopium; test: as above; assay type: cell-based; conditions: active principle 0.01 % by mass in potato-dextrose agar
Protocol: as §1

[4] = system: Fusarium culmorum; test: as above; assay type: cell-based; conditions: active principle 0.01 % by mass in potato-dextrose agar
Protocol: as §1

[5] = system: Rhoma betae; test: as above; assay type: cell-based; conditions: active principle 0.01 % by mass in potato-dextrose agar
Protocol: as §1

[6] = system: Rhyzoctonia aderholdii; test: as above; assay type: cell-based; conditions: active principle 0.01 % by mass in potato-dextrose agar
Protocol: as §1

[7] = system: Aspergillus fumigatis; test: Inhibition of phytopathogenic fungi, field test on affected potato plants; assay type: in vivo; conditions: 5 m^2 plots of affected potato plants sprayed
Source text: (§2) For field tests the plots of 5 m^2 in size with potato plants affected by Fusarium moniliforme, Venturia inaequalis, Rhyzoctonia violaceae, Botrytis cinereae, Verticillium albo-atrum, Diplodia zeae, Fusarium oxysporum, Rhoma betae, Rhyzoctonia aderholdii, Aspergillus niger, Alternaria sobani, Botrytis allii, Aspergillus fumigatis, Fusarium culmorum, Penicillium cyclopium were sprayed with the fungicide of the invention. To compare, the similar plots of the affected potato plants were aprayed with the known compositions indicated above.

[8] = system: Aspergillus niger; test: as above; assay type: in vivo; conditions: 5 m^2 plots of affected potato plants sprayed
Source text: as §2

[9] = system: Penicillium cyclopium; test: as above; assay type: in vivo; conditions: 5 m^2 plots of affected potato plants sprayed
Source text: as §2

[10] = system: Fusarium culmorum; test: as above; assay type: in vivo; conditions: 5 m^2 plots of affected potato plants sprayed
Source text: as §2

[11] = system: Rhoma betae; test: as above; assay type: in vivo; conditions: 5 m^2 plots of affected potato plants sprayed
Source text: as §2

[12] = system: Rhyzoctonia aderholdii; test: as above; assay type: in vivo; conditions: 5 m^2 plots of affected potato plants sprayed
Source text: as §2

[13] = Solubility (qualitative); conditions: water, alcohols, acetone
[14] = system: domestic flies; test: Insecticidal activity on flies, large-scale test in living and production premises; assay type: in vivo; conditions: 0.1% aqueous solution with 5% glucose, 2-3 dishes per 20 m^2, living and production premises; 72 hours
Protocol: (§3) Based on the compound there was prepared an insecticidal composition in the form of a 0.1% solution thereof in a 5% aqueous glucose solution. The activity of the insecticidal composition, according to the invention was tested on domestic flies. To this end, into the gauze-made boxes of 10x10 cm in size (6 boxes) 6-7-day flies of both sexes were placed at the rate of 50 individuals per each box. Into 5 boxes there were placed Petri dishes with a 5% aqueous glycose solutiono An insecticidal activity of the composition, according to the invention, was tested in com- parison with an insecticidal composition based on 0,0-dimethyl(1-hydroxy-2,2,2-trichloroethyl)phosphonate. The tests were also conducted in living and production premises. For this, Petri dishes containing a 0.1% aqueous solution of the insecticide of the invention, to which a 5% glucose solution was added, were put at a rate of 2-3 dishes per 20 m^2. The activity of the composition, according to the invention, was evaluated by a direct count of dead insects in 72 hours or by using the adhesive tapes and counting the number of flies on the tape prior and after the test.

[15] = system: domestic flies; test: Insecticidal activity on domestic flies, laboratory test (gauze boxes); assay type: in vivo; conditions: 0.1% solution in 5% aqueous glucose solution; 50 flies per box; count in 72 hours
Protocol: as §3

## CN(C)C(=S)SSC(=S)N(C)C [tetramethylthi-uram disulphide, tetramethylthiuram disulphide, reference compound]
[1]
  Inhibition of growth of phytopathogenic fungi colonies, % Aspergillus fumigatis Tests laboratory: 81%
[2]
  Inhibition of growth of phytopathogenic fungi colonies, % Aspergillus niger test laboratory: 100%
[3]
  Inhibition of growth of phytopathogenic fungi colonies, % Penicillium cyclopium Tests laboratory: 65%
[4]
  Inhibition of growth of phytopathogenic fungi colonies, % Fusarium culmorum Tests laboratory: 100%
[5]
  Inhibition of growth of phytopathogenic fungi colonies, % Rhoma betae test laboratory: 60%
[6]
  Inhibition of growth of phytopathogenic fungi colonies, % Rhyzoctonia aderholdii test laboratory: 100%
[7]
  Inhibition of growth of phytopathogenic fungi colonies, % Aspergillus fumigatis Tests field: 80%
[8]
  Inhibition of growth of phytopathogenic fungi colonies, % Aspergillus niger test field: 98%
[9]
  Inhibition of growth of phytopathogenic fungi colonies, % Penicillium cyclopium Tests field: 64%
[10]
  Inhibition of growth of phytopathogenic fungi colonies, % Fusarium culmorum Tests field: 98%
[11]
  Inhibition of growth of phytopathogenic fungi colonies, % Rhoma betae test field: 59%
[12]
  Inhibition of growth of phytopathogenic fungi colonies, % Rhyzoctonia aderholdii test field: 99%

## O=C(NP(=O)(Nc1ccc(Cl)cc1Cl)Nc1ccc(Cl)cc1Cl)c1ccc(Br)cc1 [Example 6, para-bromobenzoilamidophosphoric acid di-2,4-dichloranilide]
[13]
  solubility: soluble in water, alcohols, acetone
[14]
  Death of flies, % tests large-scale: 100%
[15]
  Death of flies, % tests laboratory: 100%

## O=C(NP(=O)(Nc1ccccc1Cl)Nc1ccccc1Cl)c1ccc(Br)cc1 [Example 5, para-bromo- bensoylamidophosphoric acid di-ortho-chloranilide]
[14]
  Death of flies, % tests large-scale: 100%
[15]
  Death of flies, % tests laboratory: 100%

## O=C(CCl)NP(=O)(NCc1ccccc1)NCc1ccccc1 [Example 1, chloroacetylamidophosphoric acid dibenzylamide]
[13]
  solubility: soluble in water, alcohols acetone
[14]
  Death of flies, % tests large-scale: 93%
[15]
  Death of flies, % tests laboratory: 94%

## O=C(NP(=O)(Nc1cccc(Cl)c1)Nc1cccc(Cl)c1)c1ccc(Cl)cc1 [Example 3, di-meta- chloranilide pf para-chlorobenzoylamidophosphoric acid]
[13]
  solubility: soluble in water, alcohols, acetone
[14]
  Death of flies, % tests large-scale: 86%
[15]
  Death of flies, % tests laboratory: 87%
